What was measured:
[1] = test system: TrkB; assay: Western blot of TrkB protein expression in N2a cells; assay type: cell-based; conditions: WT and Y433F^+/−
Method: In a separate set of experiments to examine the effect of 5-HT2A activation, M100907 (100 nM) was administered as a 10 min pretreatment and remained in the medium for the rest of the experiment. Next, cells were lysed and centrifuged. […] The co-immunoprecipitation was carried out as previously described[11],[23],[24] with minor modifications. Briefly, Magnetic Dynabeads Protein G (Invitrogen, 10004D) were coated with anti-TrkB antibody (R&D Systems, AF1494) at 200 ng of antibody per 1 µl of beads in rotation (2 h, 4 °C). Finally, lysates were mixed with the coated beads (100 µg of total protein per 15 µl of beads) and incubated in rotation (overnight, 4 °C).
Proteins were separated according to their molecular weight by SDS–PAGE and transferred to a polyvinylidene fluoride membrane. Membranes were incubated with the following primary antibodies (all 1:1,000 in 3% BSA in TBS-T, overnight, 4 °C): anti-TrkB (R&D Systems, AF1494), anti-β-actin (Sigma-Aldrich, A1978), anti-phospho-mTOR (Cell Signaling Technology, 5536S), anti-phospho-p44/42 MAPK (Erk1/2) (Cell Signaling Technology, 9106S), anti-mTOR (Cell Signaling Technology, 2972S) and anti-p44/42 MAPK (Erk1/2) (Cell Signaling Technology, 9102S). […] Protein bands were visualized using enhanced chemiluminescent substrate (Thermo Scientific, 32132, ECL Plus) and imaged with a charge-coupled device camera (G:BOX, Syngene).

[2] = target: T1, TrkB:PLCγ1 (Rattus norvegicus, UniProt Q63604); assay: ELISA of TrkB:PLCγ1 interaction in neuronal cultures; assay type: cell-based
T1 construct: endogenous in cells; host or cells: rat cortical neuronal cultures (E18, DIV21)
Method: The phosphorylation of TrkB (pY816) and interaction with PLCγ1 were assessed by enzyme-linked immunosorbent assay (ELISA) as previously described[11],[80],[81] with minor modifications. Briefly, white 96-well plates (PerkinElmer, OptiPlate 96F-HB) were precoated with goat anti-TrkB (R&D systems, AF1494; 1:500, overnight, 4 °C) antibody in carbonate buffer (pH 9.8) and blocked with 3% BSA in PBS with 0.1% Tween-20 (PBS-T) for 2 h at room temperature. […] Samples were incubated overnight at 4 °C, and 24 h later plates were washed with PBS-T and incubated with either rabbit anti-phospho-TrkB(Tyr816) (Cell Signaling Technology, 4168S; 1:2,000), rabbit anti-PLCγ1 (Cell Signaling Technologies, 5690S; 1:2,000) or rabbit anti-Trk (Cell Signaling Technologies, 92991; 1:2,000) antibodies overnight at 4 °C. After washing with PBS-T, plates were incubated with HRP-conjugated goat anti-rabbit (Bio-Rad, 170–5046; 1:5,000, 1 h, room temperature) antibody, followed by more washing with PBS-T. Finally, the chemiluminescent signal was read after brief incubation with Pierce ECL substrate (Thermo Fisher Scientific, 32106). Luminescence from blank wells that contained all reagents but the sample lysates was used to determine background signal.

[3] = test system: BDNF protein; assay: BDNF protein ELISA in cortical neurons; assay type: cell-based, rat; conditions: for BDNF protein, group mean (5g): LSD 100 nM, vehicle 100
Method: To determine BDNF protein concentrations, ELISA was run as previously described[83] with minor modifications. […] Samples were diluted in Hanks buffer (125 mM NaCl, 5 mM KCl, 1.2 mM NaH2PO4, 1 mM CaCl2, 1.2 mM MgCl2, 1 μM ZnCl2, 10 mM glucose, 25 mM HEPES and 0.25% BSA, pH 7.4). Samples and BDNF standards (10–1,000 pg ml^−1, Peprotech) were acidified at room temperature to pH 3 by adding 1 M HCl and neutralized to pH 7 after 15 min with 1 M NaOH. A Maxisorb Nunc ELISA plate (Thermo Scientific) previously coated with a primary BDNF antibody (1:1,000 in carbonate buffer, overnight, 4 °C) and blocked (2% BSA and 0.1% Triton X-100 in Hanks buffer, 2 h, room temperature). Then, 170 µl of samples and standards were added to the plate with 30 µl of the secondary POD-conjugated BDNF antibody (1:1,000 in 6.66% BSA and 0.66% Triton X-100 in Hanks buffer). The BDNF antibodies were received from Roche and have been previously described. After incubating overnight at 4 °C the plate was washed with PBS-T. BM Blue POD substrate (Roche, 54827-17-1) was added to each well, and the colorimetric reaction was stopped after 20 min by adding 50 µl of 1 M H2SO4. Absorbance was measured at […] with a plate reader (Varioskan Flash, Thermo Scientific).

[4] = target: T2, TrkB Y433F (Rattus norvegicus, UniProt Q63604, Y433F); assay: Radioligand dissociation binding of ^3H-LSD; conditions: ext fig 1c, n=3
T2 construct: expressed in transfected cells; host or cells: HEK293T
Method: (§1) Binding assays were performed as previously described with minor modifications. […] Samples from mouse embryo (E18) brains were also lysed, vortexed, sonicated and centrifuged for binding assays. Plates were then washed with PBS. […] For the competition binding assays with biotinylated R,R-HNK, the amino-biotinylation of R,R-HNK was performed using a commercial kit (Thermo Scientific, EZ-Link NHS-PEG4 Biotinylation Kit, 21455) and the reaction monitored by MS. A mixture of biotinylated R,R-HNK (10 µM) and unlabeled compounds (1 pM to 10 µM) in PBS was added to the 96-well plates containing the immunoprecipitated TrkB and incubated for 1 h at room temperature. […] Luminescence was determined via streptavidin conjugated with horseradish peroxidase (HRP; Thermo Fisher Scientific, 21126; 1:5,000, 1 h at room temperature) in reaction with the Pierce ECL substrate (Thermo Fisher Scientific, 32106). Luminescence from blank wells that contained all reagents but the sample lysates was used to determine nonspecific binding. To obtain the binding curves, results from binding assays were fitted to the equation of specific binding with Hill slope from GraphPad Prism 9.2. To calculate koff values, results were fitted to the equation of dissociation of one phase exponential decay from GraphPad Prism 9.2.

[5] = target: T3, TrkB WT (Rattus norvegicus, UniProt Q63604); assay: Radioligand dissociation binding of ^3H-LSD; conditions: ext fig 1c, n=3
T3 construct: expressed in transfected cells; host or cells: HEK293T
Method: as §1

T3 sequence (Q63604 32-821): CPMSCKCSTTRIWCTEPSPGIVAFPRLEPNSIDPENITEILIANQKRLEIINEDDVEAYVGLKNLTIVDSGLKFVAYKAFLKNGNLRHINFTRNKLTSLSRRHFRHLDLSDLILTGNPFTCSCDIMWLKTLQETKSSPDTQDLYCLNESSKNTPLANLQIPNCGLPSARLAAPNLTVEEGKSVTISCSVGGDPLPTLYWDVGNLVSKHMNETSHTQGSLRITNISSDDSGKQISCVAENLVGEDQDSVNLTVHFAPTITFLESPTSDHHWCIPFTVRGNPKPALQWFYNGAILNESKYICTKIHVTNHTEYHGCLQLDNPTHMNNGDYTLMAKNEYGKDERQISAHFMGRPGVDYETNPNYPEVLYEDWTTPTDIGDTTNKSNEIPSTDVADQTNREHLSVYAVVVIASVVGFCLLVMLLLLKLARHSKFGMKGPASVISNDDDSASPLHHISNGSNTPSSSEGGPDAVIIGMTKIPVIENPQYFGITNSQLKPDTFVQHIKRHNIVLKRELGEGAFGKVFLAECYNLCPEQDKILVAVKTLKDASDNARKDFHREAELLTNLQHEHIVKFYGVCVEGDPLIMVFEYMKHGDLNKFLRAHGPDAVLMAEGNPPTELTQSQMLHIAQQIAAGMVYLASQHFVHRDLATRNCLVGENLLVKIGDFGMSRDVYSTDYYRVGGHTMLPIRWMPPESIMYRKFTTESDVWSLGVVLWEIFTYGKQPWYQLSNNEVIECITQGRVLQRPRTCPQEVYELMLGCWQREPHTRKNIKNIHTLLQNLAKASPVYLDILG
T2 sequence (Q63604 32-821 Y433F): as the sequence (Q63604 32-821) above, with Y402F counted along it
T1 sequence (Q63604 32-821): as the sequence (Q63604 32-821) above

## CCN(CC)C(=O)C1C=C2c3cccc4[nH]cc(c34)CC2N(C)C1 (stereo not shown) [LSD, lysergic acid diethylamide]
[1]
  total TrkB expression: No differences in total TrkB expression
[2]
  TrkB interaction with PLCγ1: increases TrkB interaction with phospholipase C gamma 1 (PLCγ1)
[3]; 5 min
  BDNF protein, group mean (5g): 101.1
[3]; 1 h
  BDNF protein, group mean (5g): 105.6
[3]; 24 h
  BDNF protein, group mean (5g): 146.4
[3]; 72 h
  BDNF protein, group mean (5g): 104.8
[3]; after LSD treatment
  BDNF protein levels: elevated at 24 h
[4]
  K (dissociation, one phase exponential decay): 0.02402
  NS (dissociation, one phase exponential decay): 6.951
  Y0 (dissociation, one phase exponential decay): 108.1
[5]
  K (dissociation, one phase exponential decay): 0.008532
  NS (dissociation, one phase exponential decay): 2.667
  Y0 (dissociation, one phase exponential decay): 110.7

Source: article PMC10244169, “Psychedelics promote plasticity by directly binding to BDNF receptor TrkB” (Nature Neuroscience, 2023)
